Read-outs that look alike come from different tables or passages of the source.
Assays:
[1] = Particle size distribution by laser diffraction (Rodos/Helos); assay type: physicochemical; conditions: for median particle size (D50): starting materials
Protocol: Unless noted otherwise, particle size distribution provided herein is volume based particle size distribution was measured by a laser diffraction particle analyzer (Rodos/Helos system, Sympatec, NJ). Size statistics in terms of d10, d50 and d90 are reported, which are the values of the particle diameter at 10%, 50% and 90% respectively in the cumulative volumetric particle size distribution. In the Rodos/Helos system, the Rodos device works by venturi principle to disperse the powder, and the Helos unit uses laser diffraction principles of Fraunhofer Enhanced Evaluation (FREE) and Mie Extended Evaluation (MIEE) theories of light scattering to determine the particle size. Size statistics of d10, d50 and d90 at dispersion pressure of 0.1 bar are reported utilizing the FREE theory, the details for which can be found in Han et al. “Passivation of high surface energy sites of milled ibuprofen crystals via dry coating,” Journal of Pharmaceutical Sciences, Vol. 102(7), 1-15 (2013) and Jallo et al. “Improvement of flow and bulk density of pharmaceutical powders using surface modification,” International Journal of Pharmaceutics, 423 213-225 (2012).

[2] = Conditioned bulk density, Freeman FT4 powder tester; assay type: physicochemical; conditions: Example 20, APIs alone
Protocol: Unless otherwise noted, bulk density and flowability, i.e., flow function coefficient (FFC), as provided herein is obtained using a Freeman FT4 powder tester (Freeman Technologies Ltd., Worcestershire, UK), where the bulk density and the flow function coefficient (FFC) were defined as the ratio of consolidation stress to the unconfined yield stress. The FFC was evaluated from a shear test under the consolidation pressure of 3 kPa. Detailed procedures for both may be found in Freeman et al., Measuring the flow properties of consolidated, conditioned and aerated powders—A comparative study using a powder rheometer and a rotational shear cell. […]
Bulk density was measured through a standard FT4 testing procedure that first conditions the powder to yield very repeatable results for the bulk density as discussed in the detailed procedures of Freeman, et al. mentioned above. […] The conditioned bulk density was measured by loading the powder samples into the 25 ml split vessel above the minimum fill level. After a conditioning cycle was performed the vessel was split to remove the top portion of the powder; the density was determined from the mass of the remaining powder in the 25 ml vessel.
In addition to measuring the porosity of the tablets, the porosity of a powder sample, and its complement, packing fraction can be also determined as follows. […]

[3] = Flow function coefficient (FFC), FT4 shear test at 3 kPa; assay type: physicochemical; conditions: Example 20, APIs alone
[4] = True (apparent particle) density by helium pycnometer; assay type: physicochemical; conditions: Table 1
Protocol: First, the apparent particle density, […]app, for each powder (also referred to as the gas pycnometric and true density of particles) was determined using a helium multipycnometer (Model MVP-6DC, Quantachrome instruments, FL, 33426, USA; repeated five time to get an average). After this is determined, the porosity of each tablet (ε) was calculated from the apparent particle density (ρapp) and the diameter (D), thickness (t) and weight (w) of the tablets using the following equation. All quantities are in SI units.

[5] = from Huang et al., 2015; cited from earlier work
[6] = from Huang et al., 2015; cited from earlier work; remark: listed apart in the source
[7] = as-received commercial materials, Table 1

Row | median particle size (D50) [1] | bulk density [2] | FFC [3] | Particle Size D10 [1, 7] | Particle Size D50 [1, 7] | Particle Size D90 [1, 7] | True Density [4] | Compound | bulk density [5] | FFC [6]
1 | 217 microns | 0.896 g/mL | 4.67 | – | – | – | – | O=C1O[C@H]([C@@H](O)CO)C(O)=C1O [Ascorbic Acid] | – | –
2 | – | 0.206 g/mL | – | 2 μm | 10 μm | 37 μm | 1.29 g/mL | CC(=O)Nc1ccc(O)cc1 [Micronized APAP, micronized acetaminophen] | about 0.2 g/mL | about 2
3 | 58 microns | – | – | – | – | – | – | CC(C)Cc1ccc(C(C)C(=O)O)cc1 (centres unmarked) [Ibuprofen 50] | – | –

From patent US10751288B2, “Dry processed surface coated engineering excipients” (New Jersey Institute of Technology, priority 2016, dated 2020)
